# Measured values: patent US11267812B2 (Mirati Therapeutics, Inc., priority 2016, dated 2022)
# Test system: Phospho-ERK in NCI-H358 cells expressing KRas G12C
# Experiment: Cellular inhibition of KRas G12C by Phospho-ERK measurement in NCI-H358 cells
# Format: cell-based
# Conditions: Homo sapiens, NCI-H358, 3 h, read-out: IC50 (pERK(Thr202/Tyr204) normalized with GAPDH)
# Experimental: The cellular inhibition of KRAs G12C by exemplary compounds of the present invention was determined by measuring the amount of a downstream marker of KRas activity, phosphorylated ERK (“Phospho-ERK”).
# NCI-H358 cells (ATCC CRL-5807) express KRas G12C and were grown in RPMI medium supplemented with 10% fetal bovine serum, penicillin/streptomycin and 10 mM HEPES. Cells were plated in poly-D-Lysine coated 96-well plates at a concentration of 50,000 cells/well and allowed to attach for 8-12 hours. Diluted compounds were then added at a final concentration of 0.5% DMSO. After 3 hours, the medium was removed, 150 μL of 4% formaldehyde was added and the plates were incubated for 20 minutes. The plates were washed with PBS, and permeabilized using 150 μL of ice cold 100% methanol for 10 minutes. Non-specific antibody binding to the plates was blocked using 100 μL Licor Blocking Buffer (Li-Cor Biotechnology, Lincoln Nebr.) for 1 hour at room temperature. Positive control samples and samples lacking cells were parallel processed with test samples as standards.
# The amount Phospho-ERK was determined using an antibody specific for the phosphorylated form of ERK and compared to the amount of GAPDH. Primary antibodies used for detection were added as follows: Phospho-ERK (Cell Signaling cs9101) diluted 1:500 and GAPDH (Millipore MAB374) diluted 1:5000 in Licor block+0.05% Tween 20. The plates were incubated for 2 hours at room temperature. The plates were washed with PBS+0.05% Tween 20.
# Secondary antibodies used to visualize primary antibodies were added as follows: Anti-rabbit-680 diluted 1:1000 and Anti-mouse-800 diluted 1:1000 in Licor Block+0.050 Tween 20 and incubated for 1 hour at room temperature. The plates were washed with PBS+0.05% o Tween 20. A100 L aliquot of PBS was added to each well and the plates were read on a LICOR AERIUS plate reader.
# The pERK(Thr202/Tyr204) signal was normalized with the GAPDH signal and percent of DMSO control values were calculated. IC50 values were generated using a 4 parameter fit of the dose response curve. Key: “A”≥0.001-≤1 μM; “B”[…] and ND=not determined.
row,SMILES,IC50
1,"C=CC(=O)N1CCN(c2nc(OC[C@H]3CCCN3C)nc3c2CCN(c2cc(O)cc4ccccc24)C3)CC1 [Example 187, (R)-1-(4-(7-(3-hydroxynaphthalen-1-yl)-2-((1-methylpyrrolidin-2-yl)methoxy)-5,6,7,8-tetrahydropyrido[3,4-d]pyrimidin-4-yl)piperazin-1-yl)prop-2-en-1-one]",1 to 1000 nM
2,"C=CC(=O)N1CCN(c2nc(OC[C@H]3CCN(C)C3)nc3c2CCN(c2cc(O)cc4ccccc24)C3)CC1 [Example 188, (S)-1-(4-(7-(3-hydroxynaphthalen-1-yl)-2-((1-methylpyrrolidin-3-yl)methoxy)-5,6,7,8-tetrahydropyrido[3,4-d]pyrimidin-4-yl)piperazin-1-yl)prop-2-en-1-one]",1 to 1000 nM

# Same assay, conditions: Homo sapiens; NCI-H358 cells, 3 hours compound treatment; read-out: IC50 (pERK(Thr202/Tyr204) normalized with GAPDH)
row,SMILES,IC50
1,"C=CC(=O)N1CCN(c2nc(O[C@H](C)CN3CCCC3)nc3c2CCN(c2cc(O)cc4ccccc24)C3)CC1 [Example 120, (R)-1-(4-(7-(3-hydroxynaphthalen-1-yl)-2-((1-(pyrrolidin-1-yl)propan-2-yl)oxy)-5,6,7,8-tetrahydropyrido[3,4-d]pyrimidin-4-yl)piperazin-1-yl)prop-2-en-1-one]",1 to 1000 nM
2,"C=CC(=O)N1CCN(c2nc(OC[C@@H]3CN(C)CCO3)nc3c2CCN(c2cccc4ccccc24)C3)CC1CC#N (stereo partly drawn) [Example 271, 2-(1-acryloyl-4-(2-(((S)-4-methylmorpholin-2-yl)methoxy)-7-(naphthalen-1-yl)-5,6,7,8-tetrahydropyrido[3,4-d]pyrimidin-4-yl)piperazin-2-yl)acetonitrile]",1 to 1000 nM
3,"C=CC(=O)N1CCN(c2nc(OCCCN3C[C@@H]4C[C@H]3CO4)nc3c2CCN(c2cc(O)cc4ccccc24)C3)CC1CC#N (stereo partly drawn) [Example 153, 2-[4-[7-(3-hydroxy-1-naphthyl)-2-[3-[(1S,4S)-2-oxa-5-azabicyclo[2.2.1]heptan-5-yl]propoxy]-6,8-dihydro-5H-pyrido[3,4-d]pyrimidin-4-yl]-1-prop-2-enoyl-piperazin-2-yl]acetonitrile]",1 to 1000 nM
4,"C=CC(=O)N1CCN(c2nc(OCC(CO)N(C)C)nc3c2CCN(c2cc(O)cc4ccccc24)C3)CC1 (stereo not shown) [Example 55, 1-(4-(2-(2-(dimethylamino)-3-hydroxypropoxy)-7-(3-hydroxynaphthalen-1-yl)-5,6,7,8-tetrahydropyrido[3,4-d]pyrimidin-4-yl)piperazin-1-yl)prop-2-en-1-one]",1 to 1000 nM
5,"C=CC(=O)N1CCN(c2nc(OCCN3C[C@@H]4CC[C@H]3C4)nc3c2CCN(c2cc(O)cc4ccccc24)C3)CC1 [Example 77, 1-(4-(2-(2-((1S,4R)-2-azabicyclo[2.2.1]heptan-2-yl)ethoxy)-7-(3-hydroxynaphthalen-1-yl)-5,6,7,8-tetrahydropyrido[3,4-d]pyrimidin-4-yl)piperazin-1-yl)prop-2-en-1-one]",1 to 1000 nM
6,"C=CC(=O)N1CCN(c2nc(OCCCN3CCN(C(C)=O)CC3)nc3c2CCN(c2cc(O)cc4ccccc24)C3)CC1 [Example 135, 1-[4-[2-[3-(4-acetylpiperazin-1-yl)propoxy]-7-(3-hydroxy-1-naphthyl)-6,8-dihydro-5H-pyrido[3,4-d]pyrimidin-4-yl]piperazin-1-yl]prop-2-en-1-one]",1 to 1000 nM
7,"C=CC(=O)N1CCN(c2nc(OC[C@@H]3C[C@@H](OC)CN3C)nc3c2CCN(c2cccc4ccccc24)C3)CC1CC#N (stereo partly drawn) [Example 268, 2-(1-acryloyl-4-(2-(((2S,4R)-4-methoxy-1-methylpyrrolidin-2-yl)methoxy)-7-(naphthalen-1-yl)-5,6,7,8-tetrahydropyrido[3,4-d]pyrimidin-4-yl)piperazin-2-yl)acetonitrile]",1 to 1000 nM
8,"C=CC(=O)N1CCN(c2nc(OC[C@@H]3CCCN3C)nc3c2CCN(c2ccccc2OC(F)(F)F)C3)CC1CC#N (stereo partly drawn) [Example 211, 2-(1-acryloyl-4-(2-(((S)-1-methylpyrrolidin-2-yl)methoxy)-7-(2-(trifluoromethoxy)phenyl)-5,6,7,8-tetrahydropyrido[3,4-d]pyrimidin-4-yl)piperazin-2-yl)acetonitrile]",1 to 1000 nM
9,"C=CC(=O)N1CCN(c2nc(O[C@@H]3CCCN(C)C3)nc3c2CCN(c2cc(O)cc4ccccc24)C3)CC1 [Example 67, (R)-1-(4-(7-(3-hydroxynaphthalen-1-yl)-2-((1-methylpiperidin-3-yl)oxy)-5,6,7,8-tetrahydropyrido[3,4-d]pyrimidin-4-yl)piperazin-1-yl)prop-2-en-1-one]",1 to 1000 nM
10,"C=CC(=O)N1CCN(c2nc(OC[C@@H]3CCCN3C)nc3c2CCN(c2ccccc2F)C3)CC1CC#N (stereo partly drawn) [Example 227, 2-(1-acryloyl-4-(7-(2-fluorophenyl)-2-(((S)-1-methylpyrrolidin-2-yl)methoxy)-5,6,7,8-tetrahydropyrido[3,4-d]pyrimidin-4-yl)piperazin-2-yl)acetonitrile]",1 to 1000 nM
11,"CN1CCC[C@H]1COc1nc2c(c(N3CCN(C(=O)/C=C/CN4CCCCC4)[C@@H](CC#N)C3)n1)CCN(c1cccc3ccccc13)C2 [Example 236, 2-((S)-4-(2-(((S)-1-methylpyrrolidin-2-yl)methoxy)-7-(naphthalen-1-yl)-5,6,7,8-tetrahydropyrido[3,4-d]pyrimidin-4-yl)-1-(E-4-(piperidin-1-yl)but-2-enoyl)piperazin-2-yl)acetonitrile]",1 to 1000 nM
12,"C=CC(=O)N1CCN(c2nc(OC[C@@H]3CCCN3C(C)C)nc3c2CCN(c2cc(O)cc4ccccc24)C3)CC1 [Example 145, 1-[4-[7-(3-hydroxy-1-naphthyl)-2-[[(2S)-1-isopropylpyrrolidin-2-yl]methoxy]-6,8-dihydro-5H-pyrido[3,4-d]pyrimidin-4-yl]piperazin-1-yl]prop-2-en-1-one]",1 to 1000 nM
13,"C=CC(=O)N1CCN(c2nc(OC[C@H]3CCCN3C)nc3c2CCN(c2cc(O)cc4ccccc24)C3)[C@@H](C)C1 [Example 203, 1-((S)-4-(7-(3-hydroxynaphthalen-1-yl)-2-(((R)-1-methylpyrrolidin-2-yl)methoxy)-5,6,7,8-tetrahydropyrido[3,4-d]pyrimidin-4-yl)-3-methylpiperazin-1-yl)prop-2-en-1-one]",1 to 1000 nM
14,"C=CC(=O)N1CCN(c2nc(OCC3CCCN(C)C3)nc3c2CCN(c2cc(O)cc4ccccc24)C3)CC1 (stereo not shown) [Example 72, 1-(4-(7-(3-hydroxynaphthalen-1-yl)-2-((1-methylpiperidin-3-yl)methoxy)-5,6,7,8-tetrahydropyrido[3,4-d]pyrimidin-4-yl)piperazin-1-yl)prop-2-en-1-one]",1 to 1000 nM
15,"C=CC(=O)N1CCN(c2nc(OC[C@H]3CN(C)CCO3)nc3c2CCN(c2cccc4ccccc24)C3)CC1CC#N (stereo partly drawn) [Example 270, 2-(1-acryloyl-4-(2-(((R)-4-methylmorpholin-2-yl)methoxy)-7-(naphthalen-1-yl)-5,6,7,8-tetrahydropyrido[3,4-d]pyrimidin-4-yl)piperazin-2-yl)acetonitrile]",1 to 1000 nM
16,"C=CC(=O)N1CCN(c2nc(OCCN(C)C)nc3c2CCN(c2cc(O)cc4ccccc24)C3)C[C@@H]1CC#N [Example 176, 2-[(2S)-4-[2-[2-(dimethylamino)ethoxy]-7-(3-hydroxy-1-naphthyl)-6,8-dihydro-5H-pyrido[3,4-d]pyrimidin-4-yl]-1-prop-2-enoyl-piperazin-2-yl]acetonitrile]",1 to 1000 nM
17,"C=CC(=O)N1CCN(c2nc(OC[C@H]3CN(C)CCN3)nc3c2CCN(c2cccc4ccccc24)C3)CC1CC#N (stereo partly drawn) [Example 224, 2-(1-acryloyl-4-(2-(((R)-4-methylpiperazin-2-yl)methoxy)-7-(naphthalen-1-yl)-5,6,7,8-tetrahydropyrido[3,4-d]pyrimidin-4-yl)piperazin-2-yl)acetonitrile]",1 to 1000 nM
18,"C=CC(=O)N1CCN(c2nc(OC[C@@H]3CCCN3CC)nc3c2CCN(c2cc(O)cc4ccccc24)C3)CC1 [Example 197, (S)-1-(4-(2-((1-ethylpyrrolidin-2-yl)methoxy)-7-(3-hydroxynaphthalen-1-yl)-5,6,7,8-tetrahydropyrido[3,4-d]pyrimidin-4-yl)piperazin-1-yl)prop-2-en-1-one]",1 to 1000 nM
19,"C=CC(=O)N1CCN(c2nc(OC[C@@H]3CCCN3CCOC)nc3c2CCN(c2cc(O)cc4ccccc24)C3)CC1 [Example 144, (S)-1-(4-(7-(3-hydroxynaphthalen-1-yl)-2-((1-(2-methoxyethyl)pyrrolidin-2-yl)methoxy)-5,6,7,8-tetrahydropyrido[3,4-d]pyrimidin-4-yl)piperazin-1-yl)prop-2-en-1-one]",1 to 1000 nM
20,"C=CC(=O)N1CCN(c2nc(OC[C@@H]3CCCN3C)nc3c2CCN(c2cc(O)cc4ccccc24)C3)C(CO)C1 (stereo partly drawn) [Example 169, 1-[3-(hydroxymethyl)-4-[7-(3-hydroxy-1-naphthyl)-2-[[(2S)-1-methylpyrrolidin-2-yl]methoxy]-6,8-dihydro-5H-pyrido[3,4-d]pyrimidin-4-yl]piperazin-1-yl]prop-2-en-1-one]",1 to 1000 nM
